Reference: patent publication US20230033195A1, “METHODS AND COMPOSITIONS FOR IMPROVING COGNITIVE FUNCTION” (THE JOHNS HOPKINS UNIVERSITY, priority 2011, published 2023)

Columns and labels:
Format in all cases: in vivo, human
[1] = test system: DG/CA3 of aMCI subjects; test: fMRI activity during lure stimuli correctly identified as similar, DG/CA3; conditions: 125 mg twice a day for two weeks
Protocol: FIG. 8B depicts the average activity in the left CA3 of aMCI subjects with placebo treatment or levetiracetam treatment (125 mg twice a day for two weeks) during the presentation of lure stimuli that the subject correctly identified as "similar."
(§1) A within-subjects trial of 8 weeks duration, involving 17 amnestic MCI (aMCI) subjects and 17 age-matched controls with a low dose treatment of levetiracetam is conducted. During the course of the study, each aMCI subject receives both drug and placebo treatments separately in two periods of two weeks each, with the order of treatments among different aMCI subjects counterbalanced (see FIG. 7). Age-matched control subjects treated with placebo serve as a further control. Cognitive testing and fMRI imaging data are obtained from the subjects after each two week period of drug/placebo treatment.
(§2) Imaging data are obtained through high-resolution methods developed in the Stark laboratory. Data are collected on a Phillips 3 Tesla scanner (Eindhoven, The Netherlands) equipped with an 8-channel SENSE (Sensitivity Encoding) head coil, located at the F.M. Kirby Research Center for Functional Brain Imaging at the Kennedy Krieger Institute (Baltimore, MD). […]
(§3) Group data are analyzed using a two-way Analysis of Variance (ANOVA) with trial types and group as fixed factors, and subject as a random factor nested within group. […]

[2] = test system: entorhinal cortex (EC) of aMCI subjects; test: fMRI activity during lure stimuli correctly identified as similar, entorhinal cortex; conditions: 125 mg twice a day for two weeks
Protocol: FIG. 9B depicts the average activity in the left entorhinal cortex of the same aMCI subjects with placebo treatment or levetiracetam treatment (125 mg twice a day for two weeks) during the presentation of lure stimuli that the subject correctly identified as "similar."
as §1, §2, §3

[3] = test system: aMCI subjects; test: neuropsychological tests outside the scanner; conditions: 125 mg twice a day for two weeks, vs placebo
Protocol: A within-subjects trial of 8 weeks duration, involving 17 amnestic MCI (aMCI) subjects and 17 age-matched controls with a low dose treatment of levetiracetam is conducted. During the course of the study, each aMCI subject receives both drug and placebo treatments separately in two periods of two weeks each, with the order of treatments among different aMCI subjects counterbalanced (see FIG. 7). Age-matched control subjects treated with placebo serve as a further control. Cognitive testing and fMRI imaging data are obtained from the subjects after each two week period of drug/placebo treatment. All participants undergo neuropsychological evaluation at the time of assessment for treatment efficacy (Visits 1 and 2), as well as at the Baseline Visit. The evaluation occurs outside of the scanner and includes the Buschke Selective Reminding Test (Buschke and Fuld, 1974) and the Verbal Paired Associates subtest, the Logical Memory subtest, the Visual Reproduction subtest of the Wechsler Memory Scale-Revised (WMS-R) (Wechsler, 1997), and the Benton Visual Retention Test, as these tasks are particularly sensitive to medial temporal lobe function and early memory problems (Marquis et al., 2002 and Masur et al., 1994). Additionally, subjects are asked to complete tests of more general cognitive function such as tests to assess general mental status, executive function, attention and general naming ability. All neuropsychological tests are administered by a trained research assistant during a 60-minute session. As the three neuropsychological assessments in this study occur within a time period of 8 weeks, different versions of the neuropsychological tests are used to minimize test specific practice effects. Breaks are provided to the subject as needed.

SMILES: CC[C@@H](C(N)=O)N1CCCC1=O [levetiracetam, (2S)-2-(2-oxopyrrolidin-1-yl) butanamide]
- DG/CA3 activity compared with control subjects treated with placebo [1]: statistically indistinguishable
- DG/CA3 activity during successful memory judgments, vs placebo treatment ([1]; p = 0.037): reduces DG/CA3 hyper-activity
- EC activity compared with placebo-treated control subjects [2]: statistically indistinguishable
- EC activity during memory judgments, vs placebo treatment [2]: increases EC activity
- Benton Visual Rentention Test performance [3]: fail to rescue performance
- Buschke Selective Reminding Test - Delayed Recall performance [3]: fail to rescue performance
- Verbal Paired Associates Test - Delayed Recall performance [3]: fail to rescue performance
- Verbal Paired Associates Test - Recognition performance [3]: fail to rescue performance
